In ChEMBL document CHEMBL4385641 (Bioorg Med Chem, 2019):

Columns and labels:
Cannabinoid receptor 1 [1] = target: T1, Cannabinoid receptor 1 (Homo sapiens, UniProt P21554); assay: Inverse agonist activity at human CB1 receptor expressed in CHOK1 cells co-expressing Galphaq16 assessed as inhibition of calcium mobilization after 90 secs by […]-4 AM dye-based FLIPR assay; assay type: functional, cell-based
Homo sapiens = species: Homo sapiens; assay: Selectivity ratio of Ki for displacement of [3H]-CP55940 from human CB2 receptor expressed in CHO cell membranes to Ki for displacement of [3H]-CP55940 from human CB1 receptor expressed in CHO cell membranes
Cannabinoid receptor 1 [2] = target: T1, Cannabinoid receptor 1; assay: Displacement of [3H]-CP55940 from human CB1 receptor expressed in CHO cell membranes
Cannabinoid receptor 2 = Cannabinoid receptor 2 (Homo sapiens, UniProt P34972); assay: Displacement of [3H]-CP55940 from human CB2 receptor expressed in CHO cell membranes
Chain of Cannabinoid receptor 2 (P34972 whole entry): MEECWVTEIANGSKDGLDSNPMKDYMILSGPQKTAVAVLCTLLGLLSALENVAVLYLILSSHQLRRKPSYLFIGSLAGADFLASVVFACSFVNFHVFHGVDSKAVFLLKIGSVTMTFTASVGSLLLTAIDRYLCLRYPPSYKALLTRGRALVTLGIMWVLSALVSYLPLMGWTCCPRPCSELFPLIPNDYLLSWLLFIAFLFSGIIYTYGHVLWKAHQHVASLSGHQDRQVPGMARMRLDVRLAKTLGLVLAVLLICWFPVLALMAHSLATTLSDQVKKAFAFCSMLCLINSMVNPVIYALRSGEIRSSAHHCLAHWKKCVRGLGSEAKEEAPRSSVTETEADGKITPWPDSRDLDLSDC

Cannabinoid receptor 1 [3] = target: T1, Cannabinoid receptor 1; assay: Inverse agonist activity at human CB1 receptor expressed in CHOK1 cells co-expressing Galphaq16 assessed as apparent equilibrium constant after 90 secs by […]-4 AM dye-based FLIPR assay; assay type: cell-based
[4] = Half life in C57BL6 mouse plasma at […], po by LC-MS/MS analysis; assay type: ADME, organism-based
[5] = Ratio of Cmax in brain to plasma in C57BL6 mouse at […], po by LC-MS/MS analysis; assay type: ADME, organism-based
[6] = Permeability across apical to basolateral side in MDCK-MDR1 cells at 10 uM incubated for 1 hr by mass spectrometric method; assay type: ADME, cell-based, Canis lupus familiaris; details: dog, mdck-mdr1, 1 h
[7] = Cmax in C57BL6 mouse plasma at […], po by LC-MS/MS analysis; assay type: ADME, organism-based; parameters: dose 2.5 mg/kg, route oral
[8] = Cmax in C57BL6 mouse plasma at 0.3 mg/kg, po by LC-MS/MS analysis; assay type: ADME, organism-based; parameters: dose 0.3 mg/kg, route oral
[9] = Intrinsic clearance in human liver microsomes at 1 uM incubated for up to 120 mins by mass mass spectrometric method; assay type: ADME, Microsome; details: for CLH: microsomes, 2 h, 1 µM
[10] = Half life in human liver microsomes at 1 uM by mass mass spectrometric method; assay type: ADME, Microsome; details: for t1/2: microsomes, 1 µM
[11] = Drug uptake in C57BL6 mouse brain at […], po by LC-MS/MS analysis; assay type: ADME, organism-based; details: in vivo
[12] = Lipophilicity, log D of compound; assay type: physicochemical; details: octanol/water

T1 sequence (P21554 whole entry): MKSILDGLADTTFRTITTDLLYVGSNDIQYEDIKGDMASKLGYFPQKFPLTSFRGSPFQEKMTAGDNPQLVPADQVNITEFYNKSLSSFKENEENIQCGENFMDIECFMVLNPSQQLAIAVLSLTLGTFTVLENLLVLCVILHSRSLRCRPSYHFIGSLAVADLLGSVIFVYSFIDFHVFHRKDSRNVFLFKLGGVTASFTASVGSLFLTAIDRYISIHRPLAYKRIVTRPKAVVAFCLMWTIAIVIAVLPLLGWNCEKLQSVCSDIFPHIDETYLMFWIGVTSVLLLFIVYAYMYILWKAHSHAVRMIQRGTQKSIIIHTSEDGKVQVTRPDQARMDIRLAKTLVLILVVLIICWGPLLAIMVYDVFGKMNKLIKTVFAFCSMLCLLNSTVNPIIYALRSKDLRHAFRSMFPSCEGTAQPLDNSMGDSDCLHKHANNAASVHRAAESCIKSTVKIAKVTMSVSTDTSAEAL

EC50 (Cannabinoid receptor 1 [1]) [nM] | Ki (Cannabinoid receptor 1 [2]) [nM] | Ki (Cannabinoid receptor 2) [nM] | Ke(app) (Cannabinoid receptor 1 [3]) [nM] | half-life [4] [h] | Ratio [5] | permeability [6] [%] | Cmax [7] [ng/mL] | Cmax [8] [ng/mL] | microsomal CLint at 1 µM ([9]; liver microsomes, read-out: CLH) [µL/min/mg] | half-life at 1 µM ([10]; liver microsomes) [h] | CLH [9] [µL/min/mg] | t1/2 [10] [h] | Drug uptake [11] [%] | logD [12] | Compound | Ratio Ki (Homo sapiens)
 | 5 | 330 | 8 |  |  |  |  | 4 |  |  |  |  |  |  | O=S(=O)(NC1CCCCC1)NC1CCN(c2ncnc3c2nc(-c2ccccc2Cl)n3-c2ccc(Cl)cc2)CC1 | 66
 | 780 |  | 170 | 6 | 0.16 | 0.2 | 50 |  |  |  | 8 | 2.77 | < 20 | 4.1 | N=C(NC1CCN(c2ncnc3c2nc(-c2ccccc2Cl)n3-c2ccc(Cl)cc2)CC1)c1ccc(F)cc1 | > 7
94.8 | 0.98 | 6000 | 0.6 |  |  | 0.1 |  |  |  |  |  |  |  |  | O=C(NC1CCN(c2ncnc3c2nc(-c2ccccc2Cl)n3-c2ccc(Cl)cc2)CC1)c1ccccc1F | 6000

The remaining lines, values behind:

Compound | EC50 (Cannabinoid receptor 1 [1]) [nM] | Ki (Cannabinoid receptor 1 [2]) [nM] | Ki (Cannabinoid receptor 2) [nM] | Ke(app) (Cannabinoid receptor 1 [3]) [nM] | half-life [4] [h] | Ratio [5] | permeability [6] [%] | Cmax [7] [ng/mL] | Cmax [8] [ng/mL] | microsomal CLint at 1 µM ([9]; liver microsomes, read-out: CLH) [µL/min/mg] | half-life at 1 µM ([10]; liver microsomes) [h] | CLH [9] [µL/min/mg] | t1/2 [10] [h] | Drug uptake [11] [%] | logD [12] | Ratio Ki (Homo sapiens)
O=S(=O)(NC1CCN(c2ncnc3c2nc(-c2ccccc2Cl)n3-c2ccc(Cl)cc2)CC1)c1ccccc1F | 287 | 0.38 | 8500 | 0.8 |  |  |  |  |  |  |  |  |  |  |  | 22000
O=S(=O)(NC1CCN(c2ncnc3c2nc(-c2ccccc2Cl)n3-c2ccc(Cl)cc2)CC1)c1ccc(F)c(F)c1 |  | 1.7 | > 10000 | 0.5 | 5.3 | 0.31 | < 0.1 | 12 |  |  |  |  |  |  |  | > 5000
O/N=C(\c1ccc(F)cc1)C1CCN(c2ncnc3c2nc(-c2ccccc2Cl)n3-c2ccc(Cl)cc2)CC1 (stereo in doubt; 20) |  | 5 | > 10000 |  |  |  |  |  |  | 19 | 1.1 |  |  |  |  | 
O=S(=O)(NC1CCN(c2ncnc3c2nc(-c2ccccc2Cl)n3-c2ccc(OC(F)F)nc2)CC1)c1ccc(F)c(F)c1 | 132 | 3 | 860 | 1.6 | 1.6 | 0.18 |  | 62 |  |  |  | 5 | 4.57 | < 20 |  | 290
Clc1ccc(-n2c(-c3ccccc3Cl)nc3c(N4CCC(Nc5ccccn5)CC4)ncnc32)cc1 |  | 2.4 | 3100 | 54 | 7.4 | 0.45 | 0.1 | 38 |  |  |  |  |  |  |  | 1300
N=C(Nc1ccc(F)cc1)NC1CCN(c2ncnc3c2nc(-c2ccccc2Cl)n3-c2ccc(Cl)cc2)CC1 |  |  |  | 300 |  |  |  |  |  |  |  |  |  |  | 4.6 | 
